Data published in patent US10723716B2, “Alpha-helix mimetics as modulators of Abeta self-assembly” (New York University, priority 2016, dated 2020).

Legend:
[1] = biological target: T1, Nα-amino-terminal fluorescein-labeled Aβ40 (Homo sapiens, UniProt P05067); test: Fluorescence titration; details: 20 mM NaPi, 1% TFE, pH 7.4; read-out: apparent binding affinity (app. Kd)
T1 construct: fluorescein-labeled Aβ40 was purchased from Anaspec (Fremont, Calif., USA); purchased Anaspec (Fremont, Calif., USA)
Method: N^α-amino-terminal fluorescein-labeled Aβ40 was purchased from Anaspec (Fremont, Calif., USA) and used without further purification. To ensure the monomeric state of N^α-amino-terminal fluorescein-labeled Aβ40, the peptide was treated similar to other peptides and stored at −80° C. in the dark until use. Fluorescence measurements were performed on a FlexStation 3 Multi-Mode Microplate reader from Molecular Devices (Sunnyvale, Calif., USA). Fluorescence titrations were conducted in triplicate in a 96-well plate with a final well volume of 200 μL. For fluorescence measurements, the fluorescein dye was excited at 492 nm and the spectra were recorded from 500 nm to 600 nm. […] The plot was fitted using a sigmoidal fit to extract the apparent binding affinity.

Aβ42 = biological target: T2, Aβ42 (Homo sapiens, UniProt P05067); test: Dynamic light scattering of Aβ42 species; type: biochemical
T2 construct: Cleavage of APP results in several Aβ isoforms; The predominant species are Aβ42 and Aβ40; purchased Anaspec (Fremont, Calif., USA)
Method: The particle size distribution of 5 μM Aβ42 increased from a range of hydrodynamic radii of 40-80 nm to 100-500 nm after incubation for 24 h (FIG. 4a).

T2 sequence (P05067 672-713 limits assumed): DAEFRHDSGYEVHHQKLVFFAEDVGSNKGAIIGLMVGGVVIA
T1 sequence (P05067 672-711 limits assumed): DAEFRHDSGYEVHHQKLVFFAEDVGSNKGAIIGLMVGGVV

COC(=O)c1ccc(NC(=O)c2ccc(NC(=O)c3ccc([N+](=O)[O-])c(OCc4ccccc4)n3)c(OCCCN)n2)c(OCCCN)n1 [ADH-41]
Kd [1]: 1.4 ± 0.2 µM | hydrodynamic radii of Aβ42 particles (Aβ42; 5 μM Aβ42, equimolar ratio, 24 h incubation): 50-100 nm | change in particle size of Aβ42-ADH-41 complex (Aβ42; after 3 days): No change
